Measured values: PMC5983544, “Muscarinic M5 receptors modulate ethanol seeking in rats” (Neuropsychopharmacology, 2018)

Columns and labels:
[1] = biological target: T1, rat M3 mAChR (Rattus norvegicus, UniProt P08483); test: ACh-stimulated IP accumulation (IP-One) in CHO-rM3 cells; format: cell-based; details: Fig. 2c
T1 construct: host or cells: FlpIn CHO cells (Invitrogen)
Description: (§1) The IP-One assay kit (Cisbio) was used for the direct quantitative measurement of inositol phosphate (IP) accumulation in CHO-rM1, CHO-rM3 or CHO-rM5 cells, as described previously. The CHO-hCB1 pERK1/2 assays were performed as described in ref [24].

[2] = test system: hM5 mAChR; details: cited from earlier work
[3] = biological target: T2, rat M4 mAChR (Rattus norvegicus, UniProt P08485); test: [3H]NMS equilibrium binding in whole CHO-rM4 cells; details: rM4, [3H]NMS binding
T2 construct: host or cells: FlpIn CHO cells (Invitrogen)
T2 sequence (P08485 1-478): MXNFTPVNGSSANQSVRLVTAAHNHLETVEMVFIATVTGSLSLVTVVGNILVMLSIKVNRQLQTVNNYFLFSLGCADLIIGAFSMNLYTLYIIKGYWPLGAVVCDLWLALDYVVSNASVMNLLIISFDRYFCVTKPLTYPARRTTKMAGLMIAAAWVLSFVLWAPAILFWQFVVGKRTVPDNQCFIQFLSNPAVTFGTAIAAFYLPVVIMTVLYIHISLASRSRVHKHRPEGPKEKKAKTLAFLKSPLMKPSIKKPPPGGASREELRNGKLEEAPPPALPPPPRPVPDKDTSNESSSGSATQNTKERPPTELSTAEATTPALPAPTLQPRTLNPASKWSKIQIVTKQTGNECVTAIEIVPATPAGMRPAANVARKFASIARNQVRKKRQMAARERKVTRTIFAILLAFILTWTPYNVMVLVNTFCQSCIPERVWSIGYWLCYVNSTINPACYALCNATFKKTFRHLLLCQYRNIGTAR
Description: (§2) Rat mAChR subtypes (rM1–rM5; Origene) and human cannabinoid 1 receptor (hCB1; ref. [24]) constructs were isogenically integrated into FlpIn CHO cells (Invitrogen) and cells were selected in the presence of […] hygromycin B at 37 °C, 5% CO2, as previously described for the human M1 mAChR [25]. All cells were sub-cultured and seeded as previously described for the CHO-hM5 cells.
[^3H]NMS equilibrium binding assays in CHO-rM1 to CHO-rM5 cells were performed as previously described for CHO-hM5 cells. For [^35S]GTPγS binding, CHO-rM2 and CHO-rM4 cell membranes were prepared as described in Supplementary information. Membrane [^35S]GTPγS binding was performed as described in ref [26]., except GDP and [^35S]GTPγS concentrations were 1 μM and 0.3 nM, respectively. [^3H](+)-pentazocine binding was performed as described in ref. [27].

[4] = biological target: T3, human cannabinoid 1 receptor (hCB1) (Homo sapiens, UniProt P21554); test: CHO-hCB1 ERK1/2 phosphorylation assay; format: cell-based
T3 construct: expressed in transfected cells; host or cells: FlpIn CHO cells (Invitrogen)
Description: as §2, §1
Sigma-1 data are expressed as a percentage of specific [^3H]-(+)-pentazocine binding; ERK1/2 phosphorylation data are expressed percentage of the response to 10% FBS. Data represent the mean ± S.E.M. of 5-7 independent experiments performed in duplicate or triplicate.

T3 sequence (P21554 whole entry): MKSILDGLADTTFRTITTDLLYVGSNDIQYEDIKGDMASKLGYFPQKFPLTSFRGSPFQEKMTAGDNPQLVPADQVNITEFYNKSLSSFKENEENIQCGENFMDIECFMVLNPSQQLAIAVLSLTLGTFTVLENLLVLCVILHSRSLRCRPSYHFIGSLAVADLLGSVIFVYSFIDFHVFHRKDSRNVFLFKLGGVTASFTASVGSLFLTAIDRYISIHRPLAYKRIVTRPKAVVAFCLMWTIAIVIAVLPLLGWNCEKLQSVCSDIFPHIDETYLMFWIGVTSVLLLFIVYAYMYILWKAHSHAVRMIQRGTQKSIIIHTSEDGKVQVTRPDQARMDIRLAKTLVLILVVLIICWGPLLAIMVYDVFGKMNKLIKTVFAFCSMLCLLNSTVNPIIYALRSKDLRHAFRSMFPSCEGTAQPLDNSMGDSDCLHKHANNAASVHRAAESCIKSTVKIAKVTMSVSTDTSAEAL
T1 sequence (P08483 whole entry): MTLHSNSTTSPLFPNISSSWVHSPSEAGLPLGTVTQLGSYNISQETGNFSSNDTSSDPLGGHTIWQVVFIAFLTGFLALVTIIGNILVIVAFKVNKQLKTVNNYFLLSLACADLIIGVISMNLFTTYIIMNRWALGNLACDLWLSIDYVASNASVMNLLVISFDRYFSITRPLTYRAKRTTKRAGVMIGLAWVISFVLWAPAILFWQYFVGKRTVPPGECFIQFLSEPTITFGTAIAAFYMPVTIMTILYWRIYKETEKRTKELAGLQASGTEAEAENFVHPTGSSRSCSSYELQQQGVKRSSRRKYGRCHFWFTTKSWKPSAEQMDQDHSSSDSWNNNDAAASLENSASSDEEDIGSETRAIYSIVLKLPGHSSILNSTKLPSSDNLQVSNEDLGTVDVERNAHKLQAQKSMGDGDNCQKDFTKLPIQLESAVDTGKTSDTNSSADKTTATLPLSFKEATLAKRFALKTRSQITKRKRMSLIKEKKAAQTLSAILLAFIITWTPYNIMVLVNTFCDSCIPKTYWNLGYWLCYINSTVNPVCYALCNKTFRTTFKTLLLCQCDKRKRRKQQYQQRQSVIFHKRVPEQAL

- activity on ACh function at rM3 [1]: weak activity
- effect on ACh affinity [3]: no significant effects
- effect in ERK1/2 phosphorylation assays ([4]; CHO-hCB1, concentrations up to 10 μM): no apparent effect
- agonist activity, ERK1/2 phosphorylation ([4]; FlpIn-CHO hCB1, agonist mode): no agonist activity
- inhibition of WIN 55212-2 (1µM)-stimulated ERK 1/2 phosphorylation ([4]; FlpIn-CHO hCB1, antagonist mode): failed to inhibit
SMILES: O=C(c1ccc(F)c(F)c1)N1CCN2C(=O)c3ccccc3[C@@]12c1ccc(Cl)cc1 [ML375, (S)-9b-(4-chlorophenyl)-1-(3,4-difluorobenzoyl)-2,3-dihydro-1H-imidazo[2,1-a]isoi ndol-5(9bH)-one]
- functional affinity pKB [2]: 6.22
